Measured values as given in article PMC11281031, “A Machine-Learning-Driven Pathophysiology-Based New Approach Method for the Dose-Dependent Assessment of Hazardous Chemical Mixtures and Experimental Validations” (Toxics, 2024).

What was measured:
Assay type in all cases: in vivo
zebrafish embryos [1] = experiment: Dose-response zebrafish live assay, single chemicals (developmental toxicity); details: for concentration at which embryos were relatively normal / symptoms absent / lowest dose causing significant developmental abnormalities (toxic at): 2 dpf; for lethal concentration: 100% lethality / lethal by
Procedure: Dose-dependent toxicities in zebrafish embryos were assessed by the lowest dose that caused significant developmental abnormalities 2 days post-fertilization (2 dpf) in a dose-response live assay. […] Starting with Pyraclostrobin, it was identified as toxic at 30 nM. It induced developmental delays in the embryos without visible deformities. […] It appeared relatively normal at 5 µM. This twitching phenotype indicates specific neuronal toxicity. […] These symptoms were absent at lower concentrations (30 µM), highlighting a dosage-sensitive relationship.
(§1) First, the toxicity of single chemicals in zebrafish embryos is determined. Using the toxicity data of single chemicals as a baseline, we screened mixtures for altered activity and characterized the optimal concentration ratios of components. For chemical treatments, 1000× working stocks are prepared in DMSO. Dechorionated zebrafish embryos, […], are placed in 0.5 mL of fish water (0.3 g/L sea salt) in 24-well plates. The 1000× stock solution of chemicals is diluted to 2× in fish water with 2% DMSO added. Then, 0.5 mL of the 2× diluted chemical solution is added to the 0.5 mL of fish water containing the embryos to achieve a final concentration of 1× compound in 1% DMSO.
Figure 9 Dose-dependent toxicity assessment of AI-CPTM predicted chemicals (Table 1, Table 2, Table 3 and Table 4) as the lowest dose leading to, what is defined here, as significant developmental abnormalities at 2 days post-fertilization (2 dpf) in a dose-response zebrafish live assay.
We assessed individual chemicals for developmental toxicity, indicating any disruption in embryonic development from 1 to 4 days post-fertilization (dpf). Embryos are exposed to chemicals in their bath water from 1 dpf to 4 dpf, without changing the water during exposure. Initially, chemicals are screened by testing them at a series of concentrations increasing by half-log steps. […] Each embryo is assigned a score reflecting the severity of observed phenotypes, with the average score representing the group. The EC50 for developmental toxicity is defined as a score of five on this teratogenicity scale (Figure 10 and Supplementary Material S2). Once the effective range is identified, the EC50 is determined by testing a linear series of concentrations spanning from non-toxic to toxic levels. For chemicals not toxic at 10 µM, tests are extended up to 200 µM, with those showing no effects at this level considered non-toxic.

zebrafish embryos [2] = experiment: Zebrafish-embryo mixture toxicity, mixed chemical phenotype score and interaction; details: with DMSO, max 20 = normal
Procedure: as §1
Figure 10 Mixed chemical phenotypes and how they are scored. The mixed chemical phenotype score is the sum of the scores for the five individual fish in a well. Two wells were treated per chemical combination, and the scores are averaged for the wells. Scoring was as follows: dead = 0; severely deformed = 1; deformed = 2; slightly deformed = 3; and normal phenotypes = 4.
We tested the top 300 chemical mixtures, as prioritized by AI-CPTM, which were randomly selected and readily purchasable, on zebrafish embryos. […] We then compared the toxicity predictions made by the machine-learning model with the results obtained from the zebrafish assays.
The EC50, indicating the median effective concentration for developmental toxicity, is determined using morphological criteria. Fish are identified by date and well number (Figure 10). In each well containing five fish, the mixed compound phenotype score is the sum of the scores for the individual fish. Two wells are treated per combination, and the scores are averaged across these wells (Supplementary Material S2). Scoring follows this scale: dead = 0; severely deformed = 1; deformed = 2; slightly deformed = 3; normal phenotypes = 4. […] The EC50 and lowest observable effect concentration (LOEC) for binary mixtures are determined by testing a linear concentration series of the first chemical against five concentrations of the second chemical, including a vehicle control.

zebrafish embryos [3] = experiment: PFOS/PFOA zebrafish-embryo lethality (LD50), sub-lethal effects (EC50) and mixture survival assay; details: for LD50: embryos exposed at 2 dpf for 24 h at 33 °C, average of three experiments; for EC50: sub-lethal adverse effects, exposed at 2 dpf for 24 h at 33 °C
From the text: The methodology for assessing the toxicity in zebrafish is detailed in our earlier publication. The data presented in Table 3 and Table 4 and Figure 12 show the acute and sub-lethal toxicity of PFOS and PFOA individually and in combination with zebrafish embryos. This initial study offered a comparative insight into their toxic profiles in terms of lethal (LD50) and effective (EC50) concentrations, which are important for measuring their toxic effects. […] These concentrations reflect the exposure of zebrafish embryos to PFOS and PFOA at 2 days post-fertilization (dpf) for one day at a temperature of 33 °C. […] These effects include severe developmental abnormalities, such as bent body axis, edema, cloudy tissue formation, and developmental delays, signaling significant toxicity even at lower concentrations.
We explored further the combined effects of PFOS and PFOA, as shown in Table 4 and Figure 12, to examine how varying concentrations of PFOS affect the LD50 of PFOA in a mixture. The LD50 is the dose at which 50% of the embryos are dead. […] A five dose-response curve for PFOA was tested against three fixed concentrations, 68 µM, 38 µM, and 22 µM of PFOS at 2 dpf for one day at 33 °C. […] Nonetheless, as each experiment is internally controlled, relative toxicity and mixture interactions are accurately detected.
PFOS requires a lower concentration to be lethal and affects development at much lower concentrations compared to PFOA. […] Five concentrations of PFOA were tested to generate the dose-response curves. […] Overall, these experiments support predictions of AI-CPTM toxicity and chemical interaction effects.

[4] = single chemical, tested up to 200 µM

CC(C)(C)[C@@H](O)[C@@H](Cc1ccc(Cl)cc1)n1cncn1 (racemic) [Paclobutrazol]
concentration at which embryos were relatively normal / symptoms absent (zebrafish embryos [1]; single chemical): 30000 nM
lowest dose causing significant developmental abnormalities (toxic at) (zebrafish embryos [1]; [4]): 50 µM
phenotype score of single chemical (Average / Compound #1 / Compound #2 phenotype score) (zebrafish embryos [2]; 50 µM): 17.5
phenotype score of single chemical (Average / Compound #1 / Compound #2 phenotype score) (zebrafish embryos [2]; 100 µM): 20

Oc1c(Br)cc(Br)cc1Br [2,4,6-Tribromophenol]
lowest dose causing significant developmental abnormalities (toxic at) (zebrafish embryos [1]; [4]): 2 µM
lethal concentration (zebrafish embryos [1]; single chemical): 10 µM
phenotype score of single chemical (Average / Compound #1 / Compound #2 phenotype score) (zebrafish embryos [2]; 2 µM): 14
phenotype score of single chemical (Average phenotype score) (zebrafish embryos [2]; 4 µM): 0

CC1(C)C(C=C(Cl)Cl)C1C(=O)OC(C#N)c1ccc(F)c(Oc2ccccc2)c1 (stereo not drawn) [Baythroid]
effect on embryo development (Figure 11) (zebrafish embryos [1]; at 200 µm): pronounced deformities
lowest dose causing significant developmental abnormalities (toxic at) (zebrafish embryos [1]; [4]): 20 µM

CCCCC(CC)COC(=O)c1ccccc1C(=O)OCC(CC)CCCC (stereo not drawn) [Bis-(2-Ethylhexyl) Phthalate]
effect on embryo development (Figure 11) (zebrafish embryos [1]; at 200 µm): pronounced deformities
lowest dose causing significant developmental abnormalities (toxic at) (zebrafish embryos [1]; [4]): > 200 µM

CCCCOCN(C(=O)CCl)c1c(CC)cccc1CC [Butachlor]
effect on embryo development (Figure 11) (zebrafish embryos [1]; at 200 µm): pronounced deformities
concentration at which embryos were relatively normal / symptoms absent (zebrafish embryos [1]; single chemical): 100000 nM
lowest dose causing significant developmental abnormalities (toxic at) (zebrafish embryos [1]; [4]): 200 µM
phenotype score of single chemical (Average / Compound #1 / Compound #2 phenotype score) (zebrafish embryos [2]; 100 µM): 16
phenotype score of single chemical (Average phenotype score) (zebrafish embryos [2]; 200 µM): 0

O=C(OC1CCCCC1)c1ccccc1C(=O)OC1CCCCC1 [Dicyclohexyl Phthalate, Dicyclohexyl Phthalate (DCHP)]
effect on embryo development (Figure 11) (zebrafish embryos [1]; at 200 µm): marked malformations and growth retardation
lowest dose causing significant developmental abnormalities (toxic at) (zebrafish embryos [1]; [4]): 200 µM
phenotype score of single chemical (Average / Compound #1 / Compound #2 phenotype score) (zebrafish embryos [2]; 100 µM): 20
phenotype score of single chemical (Average phenotype score) (zebrafish embryos [2]; 200 µM): 20

CC1(C)C(C(=O)OC(C#N)c2cccc(Oc3ccccc3)c2)C1(C)C (stereo not drawn) [Fenpropathrin]
concentration at which embryos were relatively normal / symptoms absent (zebrafish embryos [1]; single chemical): 5000 nM
lowest dose causing significant developmental abnormalities (toxic at) (zebrafish embryos [1]; [4]): 10 µM
phenotype score of single chemical (Average / Compound #1 / Compound #2 phenotype score) (zebrafish embryos [2]; 5 µM): 10
phenotype score of single chemical (Average phenotype score) (zebrafish embryos [2]; 10 µM): 0

COCc1cnc(C2=NC(C)(C(C)C)C(=O)N2)c(C(=O)O)c1 (stereo not drawn) [Imazamox]
effect on embryo development (Figure 11) (zebrafish embryos [1]; at 200 µm): marked malformations and growth retardation
lowest dose causing significant developmental abnormalities (toxic at) (zebrafish embryos [1]; [4]): > 200 µM

CC(CNCc1ccccc1O)NCc1ccccc1O (stereo not drawn) [Motor fuel oil, Alpha, alpha’-(1-methylethylenediimino)di-ortho-cresol]
concentration at which embryos were relatively normal / symptoms absent (zebrafish embryos [1]; single chemical): 1000 nM
lowest dose causing significant developmental abnormalities (toxic at) (zebrafish embryos [1]; [4]): 5 µM
lethal concentration (zebrafish embryos [1]; single chemical): 10 µM
phenotype score of single chemical (Average / Compound #1 / Compound #2 phenotype score) (zebrafish embryos [2]; 2.5 µM): 16
phenotype score of single chemical (Average / Compound #1 / Compound #2 phenotype score) (zebrafish embryos [2]; 5 µM): 6

O=C(O)C(F)(F)C(F)(F)C(F)(F)C(F)(F)C(F)(F)C(F)(F)C(F)(F)F [PFOA, Perfluorooctanoic acid (PFOA)]
LD50 (zebrafish embryos [3]): 187.5 µM
EC50 (zebrafish embryos [3]): 29.5 µM

O=S(=O)(O)C(F)(F)C(F)(F)C(F)(F)C(F)(F)C(F)(F)C(F)(F)C(F)(F)C(F)(F)F [PFOS, Perfluorooctane sulfonic acid (PFOS)]
survival (zebrafish embryos [3]; 68 μM PFOS, 0 μM PFOA): 100%
LD50 (zebrafish embryos [3]): 53 µM
EC50 (zebrafish embryos [3]): 11 µM

COc1cnc(OC)n2nc(NS(=O)(=O)c3c(OCC(F)F)cccc3C(F)(F)F)nc12 [Penoxsulam]
effect on embryo development (Figure 11) (zebrafish embryos [1]; at 200 µm): moderate deformities
lowest dose causing significant developmental abnormalities (toxic at) (zebrafish embryos [1]; [4]): > 200 µM

COC(=O)N(OC)c1ccccc1COc1ccn(-c2ccc(Cl)cc2)n1 [Pyraclostrobin]
effect on embryo development (Figure 11) (zebrafish embryos [1]; at 30 nm): minimal effects
effect on embryo development (Figure 11) (zebrafish embryos [1]; at 200 µm): significant embryonic damage
concentration resulting in embryo lysis (zebrafish embryos [1]; single chemical): 100 nM
lowest dose causing significant developmental abnormalities (toxic at) (zebrafish embryos [1]; single chemical): 0.03 µM
phenotype score of single chemical (Average / Compound #1 / Compound #2 phenotype score) (zebrafish embryos [2]; 0.01 µM): 20
phenotype score of single chemical (Average phenotype score) (zebrafish embryos [2]; 0.02 µM): 20

CC(C)(C)c1ccc(CSc2cnn(C(C)(C)C)c(=O)c2Cl)cc1 [Pyridaben]
effect on embryo development (Figure 11) (zebrafish embryos [1]; at 50 nm): noticeable developmental delays and morphological abnormalities
concentration causing developmental stalling at the 8-somite stage (zebrafish embryos [1]; single chemical): 100 nM
lowest dose causing significant developmental abnormalities (toxic at) (zebrafish embryos [1]; single chemical): 0.05 µM
phenotype score of single chemical (Average / Compound #1 / Compound #2 phenotype score) (zebrafish embryos [2]; 0.05 µM): 20
phenotype score of single chemical (Average phenotype score) (zebrafish embryos [2]; 0.1 µM): 18.5

CC/C(=N\OC/C=C/Cl)C1=C(O)CC(C2CCOCC2)CC1=O (stereo not drawn) [Tepraloxydim]
effect on embryo development (Figure 11) (zebrafish embryos [1]; at 200 µm): moderate deformities
lowest dose causing significant developmental abnormalities (toxic at) (zebrafish embryos [1]; [4]): > 200 µM

CC(C)=CC1C(C(=O)OCN2C(=O)C3=C(CCCC3)C2=O)C1(C)C (stereo not drawn) [Tetramethrin]
effect on embryo development (Figure 11) (zebrafish embryos [1]; at 200 µm): pronounced deformities
lowest dose causing significant developmental abnormalities (toxic at) (zebrafish embryos [1]; [4]): 5 µM
phenotype score of single chemical (Average / Compound #1 / Compound #2 phenotype score) (zebrafish embryos [2]; 5 µM): 20
phenotype score of single chemical (Average phenotype score) (zebrafish embryos [2]; 10 µM): 15

COc1nc(C)nc(NC(=O)NS(=O)(=O)c2ccccc2OCCCl)n1 [Triasulfuron]
lowest dose causing significant developmental abnormalities (toxic at) (zebrafish embryos [1]; [4]): > 200 µM
